In article PMC7414198, “Genomic and enzymatic evidence of acetogenesis by anaerobic methanotrophic archaea” (Nature Communications, 2020):
Where two headings read alike, the source gives them in different places.

What was measured:
[1] = system: acetyl-CoA synthetase (Acs) from ANME-2a; settings: acetyl-CoA-forming direction; concentrations of ATP and CoA not given
[2] = system: T1, acetyl-CoA synthetase (Acs) from ANME-2a; test: DTNB assay of HSCoA release, […] nm; format: biochemical, ANME-2 cluster archaeon (ANME-2a, uncultured); settings: acetate-forming direction; 2 mM AMP, 2 mM PPi, 1.25 M KCl, 1 mM MgCl2, 20 mM Tris-HCl pH 8.0
T1 construct: codon-optimised synthetic gene in pET-28a (NdeI/BamHI), E. coli Rosetta(DE3), Ni-NTA purified, 70 kDa

[3] = system: T2, ADP-forming acetate-CoA ligase (Acd) from ANME-2a; test: DTNB assay of HSCoA release, […] nm; format: biochemical, ANME-2 cluster archaeon (ANME-2a, uncultured); settings: acetate-forming direction; 2 mM ADP, 40 mM K3PO4, 1 mM MgCl2, 20 mM Tris-HCl pH 8.0
T2 construct: alpha (55 kDa) and beta (25 kDa) subunits, codon-optimised synthetic genes in pET-28a (NdeI/BamHI and BamHI/SalI, RBS before beta), E. coli BL21(DE3)-groEL, Ni-NTA purified

| Structure (SMILES) | Km [1] | Km [2] | Km [3] |
| --- | --- | --- | --- |
| CC(=O)O [acetate] | 490 µM |  |  |
| CC(=O)SCCNC(=O)CCNC(=O)[C@H](O)C(C)(C)COP(=O)(O)OP(=O)(O)OC[C@H]1O[C@@H](n2cnc3c(N)ncnc32)[C@H](O)[C@@H]1OP(=O)(O)O [acetyl-CoA] |  | 8.5 µM | 31.3 µM |
